Consider 16 compounds from patent US20260265233A1, “BENZOTHIOPHENE DERIVATIVES AS RXFP1 AGONISTS” (BRISTOL-MYERS SQUIBB COMPANY, priority 2021, published 2026).

In this assay the target is T1, human RXFP1 (Homo sapiens, UniProt Q9HBX9).
T1 construct: expressed in transfected cells
T1 sequence (Q9HBX9 1-757): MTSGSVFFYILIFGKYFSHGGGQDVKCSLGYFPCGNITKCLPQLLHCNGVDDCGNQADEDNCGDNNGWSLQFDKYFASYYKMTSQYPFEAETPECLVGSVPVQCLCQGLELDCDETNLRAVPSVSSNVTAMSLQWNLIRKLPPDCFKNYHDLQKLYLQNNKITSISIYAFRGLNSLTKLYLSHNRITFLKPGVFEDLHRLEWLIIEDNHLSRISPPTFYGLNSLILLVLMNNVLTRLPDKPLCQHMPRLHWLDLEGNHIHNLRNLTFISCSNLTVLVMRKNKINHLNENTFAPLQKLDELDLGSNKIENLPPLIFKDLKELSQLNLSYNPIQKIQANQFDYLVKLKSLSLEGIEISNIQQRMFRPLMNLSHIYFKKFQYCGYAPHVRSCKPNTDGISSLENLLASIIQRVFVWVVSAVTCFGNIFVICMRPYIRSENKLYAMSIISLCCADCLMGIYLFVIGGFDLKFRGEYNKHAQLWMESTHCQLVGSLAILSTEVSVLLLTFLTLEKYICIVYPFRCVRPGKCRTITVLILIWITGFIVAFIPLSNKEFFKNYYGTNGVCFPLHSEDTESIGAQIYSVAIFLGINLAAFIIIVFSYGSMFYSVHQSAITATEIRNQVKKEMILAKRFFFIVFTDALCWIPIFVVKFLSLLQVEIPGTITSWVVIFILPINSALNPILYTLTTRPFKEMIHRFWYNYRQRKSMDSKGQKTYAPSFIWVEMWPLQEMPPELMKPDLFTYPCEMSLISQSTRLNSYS
Nature of the assay: hRXFP1 HEK293 cAMP assay (HTRF). The conditions noted are these: HEK293 cells stably expressing human RXFP1; 30 min at rt; intracellular cAMP by HTRF. The class given is cell-based. Summed up:
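Agonism is measured as cAMP by HTRF, quantified from a standard curve via the 665/590 nm ratio and fitted with a four-parameter logistic equation. Compounds (0.010 nM to 50 μM final, 2% DMSO) were applied for 30 min at rt to human RXFP1-expressing HEK293 cells in assay buffer containing 0.5 mM IBMX.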
Compound `COc1ccc(CNC(c2ccc(F)c(-c3ccc(OC)c(C(=O)Nc4c(C(=O)Nc5ccc(F)c(C(F)(F)F)c5)sc5cc(C(F)(F)F)ccc45)c3)c2)C(F)(F)F)cc1OC` (single isomer, unassigned) [Example 115, 3-(5′-(1-((3,4-dimethoxybenzyl)amino)-2,2,2-trifluoroethyl)-2′-fluoro-4-methoxy-[1,1′-biphenyl]-3-carboxamido)-N-(4-fluoro-3-(trifluoromethyl)phenyl)-6-(trifluoromethyl) benzo[b] thiophene-2-carboxamide] displayed an EC50 of 0.098 µM.
For the compound `COc1ccc(C(=O)N2CC3(COC3)C2)cc1C(=O)Nc1c(C(=O)Nc2ccc(F)c(C(F)(F)F)c2)sc2cc(C3CC3)ncc12` [Example 238, 6-cyclopropyl-N-(4-fluoro-3-(trifluoromethyl)phenyl)-3-(2-methoxy-5-(2-oxa-6-azaspiro[3.3]heptane-6-carbonyl)benzamido) thieno[3,2-c]pyridine-2-carboxamide], a half-maximal response (EC50) required 1.4 µM.
In turn, `COc1ccc(CNCC(C)(C)O)cc1C(=O)Nc1c(C(=O)Nc2ccc(F)c(C(F)(F)F)c2)sc2cc(C(F)(F)F)ccc12` [Example 236, N-(4-fluoro-3-(trifluoromethyl)phenyl)-3-(5-(((2-hydroxy-2-methylpropyl)amino)methyl)-2-methoxy-benzamido)-6-(trifluoromethyl) benzo[b] thiophene-2-carboxamide] had an EC50 of 1.39 µM.
As to `COc1ccc(C2CCCN(C(=O)C(C)(C)O)C2)cc1C(=O)Nc1c(C(=O)Nc2ccc(F)c(C(F)(F)F)c2)sc2cc(C(F)(F)F)ccc12` (stereo not shown) [Example 92, N-[4-fluoro-3-(trifluoromethyl)phenyl]-3-{5-[1-(2-hydroxy-2-methylpropanoyl)piperidin-3-yl]-2-methoxy-benzamido}-6-(trifluoromethyl)-1-benzothiophene-2-carboxamide], the EC50 was 0.165 µM.
In the case of `COc1ccc(-c2cc(CO)on2)cc1C(=O)Nc1c(C(=O)Nc2ccc(F)c(C(F)(F)F)c2)sc2cc(C(F)(F)F)ccc12` [Example 287, N-(4-fluoro-3-(trifluoromethyl)phenyl)-3-(5-(5-(hydroxymethyl)isoxazol-3-yl)-2-methoxy-benzamido)-6-(trifluoromethyl) benzo[b] thiophene-2-carboxamide] it was 1.26 µM.
In turn, `COc1ccc(C(=O)N2CC[C@@H](O)C2)cc1C(=O)Nc1c(C(=O)Nc2ccc(F)c(C(F)(F)F)c2)sc2cc(C3CC3)ncc12` [Example 195, (R)-6-cyclopropyl-N-(4-fluoro-3-(trifluoromethyl)phenyl)-3-(5-(3-hydroxy-pyrrolidine-1-carbonyl)-2-methoxy-benzamido) thieno[3,2-c] pyridine-2-carboxamide] returned an EC50 of 0.91 µM.
Compound `COc1ccc(C2CCCC(NC3COC3)C2)cc1C(=O)Nc1c(C(=O)Nc2ccc(F)c(C(F)(F)F)c2)sc2cc(C(F)(F)F)ccc12` (single isomer, unassigned) [Example 63, N-(4-fluoro-3-(trifluoromethyl)phenyl)-3-(2-methoxy-5-(3-(oxetan-3-ylamino)cyclohexyl)benzamido)-6-(trifluoromethyl) benzo[b] thiophene-2-carboxamide] returned an EC50 of 2.06 µM.
In the case of `COc1ccc(C2CCC(NCC(=O)O)CC2)cc1C(=O)Nc1c(C(=O)Nc2ccc(F)c(C(F)(F)F)c2)sc2cc(C(F)(F)F)ccc12` (single isomer, unassigned) [Example 211, (4-(3-((2-((4-fluoro-3-(trifluoromethyl)phenyl)carbamoyl)-6-(trifluoromethyl)benzo[b]thiophen-3-yl)carbamoyl)-4-methoxyphenyl)cyclohexyl) glycine], the response was half-maximal at 2.77 µM (EC50).
As for `COc1ncc(C(=O)OC(C)(C)C)cc1C(=O)Nc1c(C(=O)Nc2ccc(F)c(C(F)(F)F)c2)sc2cc(C(F)(F)F)ccc12` [Example 223, tert-butyl 5-((2-((4-fluoro-3-(trifluoromethyl)phenyl)carbamoyl)-6-(trifluoromethyl)benzo[b]thiophen-3-yl)carbamoyl)-6-methoxynicotinate], a half-maximal response (EC50) required 1.25 µM.
Then `COc1ccc(C2=NOC3(CCNCC3)C2)cc1C(=O)Nc1c(C(=O)Nc2ccc(F)c(C(F)(F)F)c2)sc2cc(C(F)(F)F)ccc12` [Example 272, N-(4-fluoro-3-(trifluoromethyl)phenyl)-3-(2-methoxy-5-(1-oxa-2,8-diazaspiro[4.5]dec-2-en-3-yl)benzamido)-6-(trifluoromethyl) benzo[b] thiophene-2-carboxamide], with 0.9 µM; and `COc1ccc(C2=NOC3CC(CO)CC23)cc1C(=O)Nc1c(C(=O)Nc2ccc(F)c(C(F)(F)F)c2)sc2cc(C(F)(F)F)ccc12` (single isomer, unassigned) [Example 268, N-[4-fluoro-3-(trifluoromethyl)phenyl]-3-{5-[5-(hydroxymethyl)-3aH,4H,5H,6H, 6aH-cyclopenta[d] [1,2]oxazol-3-yl]-2-methoxy-benzamido}-6-(trifluoromethyl)-1-benzothiophene-2-carboxamide], with 0.0049 µM; and `COc1ccc(-c2cc(C(C)(C)O)on2)cc1C(=O)Nc1c(C(=O)Nc2ccc(F)c(C(F)(F)F)c2)sc2cc(C(F)(F)F)ccc12` [Example 276, N-(4-fluoro-3-(trifluoromethyl)phenyl)-3-(5-(5-(2-hydroxypropan-2-yl)isoxazol-3-yl)-2-methoxy-benzamido)-6-(trifluoromethyl) benzo[b] thiophene-2-carboxamide], with 0.204 µM.
In the case of `COc1ccc(C2=NOC3(C2)CN(C(=O)C(C)(C)O)C3)cc1C(=O)Nc1c(C(=O)Nc2ccc(F)c(C(F)(F)F)c2)sc2cc(C(F)(F)F)ccc12` [Example 284, N-(4-fluoro-3-(trifluoromethyl)phenyl)-3-(5-(2-(2-hydroxy-2-methylpropanoyl)-5-oxa-2,6-diazaspiro[3.4]oct-6-en-7-yl)-2-methoxy-benzamido)-6-(trifluoromethyl) benzo[b] thiophene-2-carboxamide] it was 1.3 µM; in that of `COc1ccc(C2CC2C(=O)N2CC(OC)C2)cc1C(=O)Nc1c(C(=O)Nc2ccc(F)c(C(F)(F)F)c2)sc2cc(C(F)(F)F)ccc12` (stereo not shown) [Example 167, N-[4-fluoro-3-(trifluoromethyl)phenyl]-3-{2-methoxy-5-[2-(3-methoxyazetidine-1-carbonyl)cyclopropyl]benzamido}-6-(trifluoromethyl)-1-benzothiophene-2-carboxamide], 0.4 µM.
The compound `COc1ccc(C2CCCN(C(=O)C(C)(C)CO)C2)cc1C(=O)Nc1c(C(=O)Nc2ccc(F)c(C(F)(F)F)c2)sc2cc(C(F)(F)F)ccc12` (single isomer, unassigned) [Example 93, N-[4-fluoro-3-(trifluoromethyl)phenyl]-3-{5-[1-(3-hydroxy-2,2-dimethyl-propanoyl)piperidin-3-yl]-2-methoxy-benzamido}-6-(trifluoromethyl)-1-benzothiophene-2-carboxamide] had an EC50 of 0.0484 µM.
Regarding `COc1ncc(N2CC3(COC3)C2)cc1C(=O)Nc1c(C(=O)Nc2ccc(F)c(C(F)(F)F)c2)sc2cc(C(F)(F)F)ccc12` [Example 233, N-(2-((4-fluoro-3-(trifluoromethyl)phenyl)carbamoyl)-6-(trifluoromethyl)benzo[b]thiophen-3-yl)-2-methoxy-5-(2-oxa-6-azaspiro[3.3]heptan-6-yl)nicotinamide], the EC50 is 4.65 µM.

What is called EC50 is the concentration needed to bring the measured effect to its halfway point.
